Test results: patent US8476295B2, “Bridged bicyclic RHO kinase inhibitor compounds, composition and use” (Inspire, priority 2009, dated 2013)
Where two headings read alike, the source gives them in different places.

How the values were obtained:
Rho kinase 1 = Rho kinase 1 (Homo sapiens (Human), UniProt Q13464); test: biochemical
Rho kinase 2 = Rho kinase 2 (Homo sapiens (Human), UniProt O75116); test: Rho Kinase Inhibition Assay (IMAP fluorescence polarization), Rho kinase 2; assay type: biochemical; details: isolated enzyme, 10 μM ATP, 60 minutes at room temperature
Rho kinase 2, sequence (O75116 11-552): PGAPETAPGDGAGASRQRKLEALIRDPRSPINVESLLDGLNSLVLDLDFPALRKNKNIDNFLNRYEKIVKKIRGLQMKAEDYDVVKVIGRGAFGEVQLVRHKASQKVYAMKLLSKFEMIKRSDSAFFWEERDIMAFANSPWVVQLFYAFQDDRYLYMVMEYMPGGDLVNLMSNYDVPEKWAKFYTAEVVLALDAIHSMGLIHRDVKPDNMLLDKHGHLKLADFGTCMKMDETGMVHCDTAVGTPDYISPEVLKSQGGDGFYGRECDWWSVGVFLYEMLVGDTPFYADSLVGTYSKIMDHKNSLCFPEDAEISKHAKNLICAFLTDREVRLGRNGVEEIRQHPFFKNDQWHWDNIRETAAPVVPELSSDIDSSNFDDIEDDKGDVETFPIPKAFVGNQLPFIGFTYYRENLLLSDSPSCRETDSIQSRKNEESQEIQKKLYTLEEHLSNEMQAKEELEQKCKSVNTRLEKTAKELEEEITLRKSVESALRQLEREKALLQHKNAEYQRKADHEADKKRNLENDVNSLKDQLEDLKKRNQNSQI

[1] = Rho kinase 1 Ki, isolated enzyme, 10 μM ATP, 60 minutes at room temperature

Rho kinase 1, sequence (Q13464 17-535): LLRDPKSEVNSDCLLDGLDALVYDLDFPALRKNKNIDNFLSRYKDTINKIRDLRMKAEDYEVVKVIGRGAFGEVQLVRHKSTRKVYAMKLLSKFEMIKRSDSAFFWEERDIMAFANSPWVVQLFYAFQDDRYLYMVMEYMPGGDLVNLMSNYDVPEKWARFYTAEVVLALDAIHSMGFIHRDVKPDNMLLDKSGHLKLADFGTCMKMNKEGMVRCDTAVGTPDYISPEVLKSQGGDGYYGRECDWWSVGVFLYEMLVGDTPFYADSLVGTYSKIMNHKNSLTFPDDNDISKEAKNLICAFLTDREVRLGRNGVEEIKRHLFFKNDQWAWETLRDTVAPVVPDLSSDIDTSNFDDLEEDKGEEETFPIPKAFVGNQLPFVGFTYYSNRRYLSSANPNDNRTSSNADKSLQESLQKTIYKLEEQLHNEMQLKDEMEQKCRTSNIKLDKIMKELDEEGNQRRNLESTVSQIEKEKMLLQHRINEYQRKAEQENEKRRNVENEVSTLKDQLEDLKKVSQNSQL

Q: Which Ki (Rho kinase 1) does the source give for `c1ccc(CN2C[C@@H]3CC[C@H]2[C@@H]3Nc2ccc3[nH]ncc3c2)cc1` (racemic) [Compound 3.1.01, N-((1SR,4SR,7RS)-2-benzyl-2-azabicyclo[2.2.1]heptan-7-yl)-1H-indazol-5-amine] here?
A: The Ki was 976 nM.

Q: What about the Ki (Rho kinase 2; read-out: Rho kinase 2 Ki) of the same molecule?
A: Its Ki is 464 nM.

Q: `c1ccc(CN2C3CCC2CC(Nc2ccc4[nH]ncc4c2)C3)cc1` (single isomer, unassigned) [Compound 1.1.01, N-((1RS,3rs,5SR)-8-benzyl-8-azabicyclo[3.2.1]octan-3-yl)-1H-indazol-5-amine] was tested. Which Ki (Rho kinase 1; [1]) did it give?
A: Its Ki is 72 nM.

Q: What about the Ki (Rho kinase 2; Rho kinase 2 Ki) of the same molecule?
A: Its Ki is 29 nM.

Q: `c1ccc(CN2C3CCC2CC(Nc2ccc4[nH]ncc4c2)C3)cc1` (single isomer, unassigned) [Compound 2.1.01, N-((1RS,3sr,5SR)-8-benzyl-8-azabicyclo[3.2.1]octan-3-yl)-1H-indazol-5-amine] was tested. Which Ki (Rho kinase 1; [1]) did it give?
A: Its Ki is 806 nM.

Q: And the Ki (Rho kinase 2; Rho kinase 2 Ki)?
A: The Ki was 220 nM.

Q: Which results are given for `Cc1ccc(CN2C3CCC2CC(Nc2ccc4[nH]ncc4c2)C3)cc1` (stereo not drawn) [Compound 1.1.02, N-((1RS,3rs,5SR)-8-(4-methylbenzyl)-8-azabicyclo[3.2.1]octan-3-yl)-1H-indazol-5-amine]?
A: Ki (Rho kinase 1; [1]): 91 nM; Ki (Rho kinase 2; Rho kinase 2 Ki): 20 nM

Q: How did the Ki (Rho kinase 2; Rho kinase 2 Ki) turn out when `OCCOc1cccc(CN2C3CCC2CC(Nc2ccc4[nH]ncc4c2)C3)c1` (stereo not drawn) [Compound 1.1.03, 2-(3-(((1RS,3rs,5SR)-3-((1H-indazol-5-yl)amino)-8-azabicyclo[3.2.1]octan-8-yl)methyl)phenoxy)ethanol] was run?
A: Its Ki is 21 nM.

Q: Which results are given for `Cc1ccc(CN2C3CCC2CC(Nc2ccc4[nH]ncc4c2)C3)cc1OCCO` (stereo not drawn) [Compound 1.1.04, 2-(5-(((1RS,3rs,5SR)-3-((1H-indazol-5-yl)amino)-8-azabicyclo[3.2.1]octan-8-yl)methyl)-2-methylphenoxy)ethanol]?
A: Ki (Rho kinase 1; [1]): 35 nM; Ki (Rho kinase 2; Rho kinase 2 Ki): 10 nM
